“And” between values parts separate entries of the source, which are not always exact repeats. Equal values may be shown once. Read-outs that look alike come from different tables or passages of the source.
Test: UV spectrum: absorption maxima, molar extinction coefficient and K value
Assay type: physicochemical
Settings: for εM: in M-1·cm-1 (unit assumed); for UV absorption peaks: does not depend on the solvent nature and pH values

What does the source list for 3,4,5-trihydroxystilbene [Resveratrol]?
εM (at 216 nm): 19,836; εM (at 305 nm): 28,044; εM (at 309 nm): 27,816; UV absorption peaks: 216 nm and 305 nm and 309 nm; UV absorption peaks (listed as resveratrol): 305 nm and 309 nm

Which Max ads. (Solvent system Ethanol) does the source give for `Cc1ccc(C=C2C(=O)C3(C)CCC2C3(C)C)cc1` (stereo not shown) [3-(4-methylbenzylidene)-camphor, 3-(4-methylbenzylidene)-bornan-2-one] here?
The Max ads. was 300.

For `CC(C)c1ccc(C(=O)CC(=O)c2ccccc2)cc1` [4-isopropyl dibenzoyl methane, 1-p-cumenyl-3-phenylpropane-1,3-dione], which Max ads. (Solvent system Ethanol) is on record?
The Max ads. was 345.

With `COc1ccc(C(=O)CC(=O)c2ccc(C(C)(C)C)cc2)cc1` [Butyl methoxy dibenzoyl methane, 4-t-butyl-4′-methoxydibenzoyl methane] as the compound, how does the Max ads. (Solvent system Ethanol) read?
The Max ads. was 358.

Which K value does the source give for `CCOC(=O)c1ccc(N(CC(C)O)CC(C)O)cc1` (stereo not shown) [Ethyl dihydroxypropyl PABA, Ethyl-4-bis(2-hydroxypropyl)amino benzoic acid] here?
The K value was 119.

And the Max ads.?
The Max ads. was 311.

And the “εM (Molar extinction coefficient)” value?
The value was 27,000.

With `Nc1ccc(C(=O)OCC(O)CO)cc1` (stereo not shown) [Glyceryl PABA, 1,2,3-propanetriol,] as the compound, how does the Max ads. (Solvent system Ethanol) read?
The Max ads. was 297.

For `CC1CC(OC(=O)c2ccccc2O)CC(C)(C)C1` (stereo not shown) [Homosalate, 3,3,5-trimethyl cyclohexyl-2-h drox benzoate], which Max ads. (Solvent system Ethanol) is on record?
The Max ads. was 306.

Which Max ads. (0,1 N NaOH) does the source give for `O=S(=O)(O)c1ccc2nc(-c3ccccc3)[nH]c2c1` [Novantisol, 2-phenyl-benzimidazole-5-sulphonic acid] here?
Its Max ads. is 305.

With `CCCCC(CC)COC(=O)c1ccc(N(C)C)cc1` (stereo not shown) [Octyl dimethyl PABA, 2-ethylbexyl p-dimethylaminobenzoate] as the compound, how does the Max ads. (Solvent system Ethanol) read?
Its Max ads. is 311.

Which Max ads. (Solvent system Ethanol) does the source give for `CCCCC(CC)COC(=O)C=Cc1ccc(OC)cc1` (stereo not shown) [Octyl methoxycinnamate, 2-ethylhexyl-p-methoxycinnamate] here?
Its Max ads. is 311.

Which Max ads. (Solvent system Ethanol) does the source give for `CCCCC(CC)COC(=O)c1ccccc1O` (stereo not shown) [Octyl salicylate, 2-ethylhexyl salicylate] here?
Its Max ads. is 307.

With `Nc1ccc(C(=O)O)cc1` [PABA, 4-amino benzoic acid] as the compound, how does the Max ads. (Solvent system Ethanol) read?
The Max ads. was 283.

With “Diethanolamine methoxy hydroxycinnamate [DEA methoxycinnamate]” as the compound, how does the K value read?
Its K value is 79.

From patent US20040009197A1 (priority 2000, published 2004)
